Data taken from US9809623B2, “α4β7 peptide monomer and dimer antagonists” (Protagonist Therapeutics, Inc., priority 2014, dated 2017).
Numbered stars: 1 amine (or outer) side, 2 acyl side, 3 side chain; on linkers, the order of the positions; unused ones are H or OH. Bridge positions count the residues as written; N and C are the ends. Square brackets hold non-standard residues; d marks the D form. Peptide text beside a SMILES is read from it. I, II: the chains in the order shown. 1Nal = N[C@@H](Cc1cccc2ccccc12)C(=O)O; 2Nal = N[C@@H](Cc1ccc2ccccc2c1)C(=O)O; d2Nal = N[C@H](Cc1ccc2ccccc2c1)C(=O)O; Diglycolyl = O=C(COCC(=O)[*:2])[*:1]; NMeR = CN[C@@H](CCCNC(=N)N)C(=O)O; Pen = CC(C)(S)[C@H](N)C(=O)O

biological target: α4β7 (Homo sapiens, UniProt P13612+P26010); assay: α4β7-MAdCAM Cell Adhesion Assay (RPMI 8866 human cells); format: cell-based; parameters: host or cells: RPMI 8866 human B lymphoblastoid cells; conditions: Table 3-B, Potency (α4β7); range classes; read-out: α4β7 cell (Hu) IC50
How it was run: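 Adhesion read-out: MTT absorbance at 570 nm minus no-cell wells, after three washes. Plates coated with rh MAdCAM-1/Fc received peptide dilutions plus 200,000 RPMI 8866 cells in Mn2+ (1 mM)-supplemented DMEM, 0.1% BSA, HEPES pH 7, incubated 30-45 min, 37 °C.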

Chain of α4β7 (P13612 34-1032): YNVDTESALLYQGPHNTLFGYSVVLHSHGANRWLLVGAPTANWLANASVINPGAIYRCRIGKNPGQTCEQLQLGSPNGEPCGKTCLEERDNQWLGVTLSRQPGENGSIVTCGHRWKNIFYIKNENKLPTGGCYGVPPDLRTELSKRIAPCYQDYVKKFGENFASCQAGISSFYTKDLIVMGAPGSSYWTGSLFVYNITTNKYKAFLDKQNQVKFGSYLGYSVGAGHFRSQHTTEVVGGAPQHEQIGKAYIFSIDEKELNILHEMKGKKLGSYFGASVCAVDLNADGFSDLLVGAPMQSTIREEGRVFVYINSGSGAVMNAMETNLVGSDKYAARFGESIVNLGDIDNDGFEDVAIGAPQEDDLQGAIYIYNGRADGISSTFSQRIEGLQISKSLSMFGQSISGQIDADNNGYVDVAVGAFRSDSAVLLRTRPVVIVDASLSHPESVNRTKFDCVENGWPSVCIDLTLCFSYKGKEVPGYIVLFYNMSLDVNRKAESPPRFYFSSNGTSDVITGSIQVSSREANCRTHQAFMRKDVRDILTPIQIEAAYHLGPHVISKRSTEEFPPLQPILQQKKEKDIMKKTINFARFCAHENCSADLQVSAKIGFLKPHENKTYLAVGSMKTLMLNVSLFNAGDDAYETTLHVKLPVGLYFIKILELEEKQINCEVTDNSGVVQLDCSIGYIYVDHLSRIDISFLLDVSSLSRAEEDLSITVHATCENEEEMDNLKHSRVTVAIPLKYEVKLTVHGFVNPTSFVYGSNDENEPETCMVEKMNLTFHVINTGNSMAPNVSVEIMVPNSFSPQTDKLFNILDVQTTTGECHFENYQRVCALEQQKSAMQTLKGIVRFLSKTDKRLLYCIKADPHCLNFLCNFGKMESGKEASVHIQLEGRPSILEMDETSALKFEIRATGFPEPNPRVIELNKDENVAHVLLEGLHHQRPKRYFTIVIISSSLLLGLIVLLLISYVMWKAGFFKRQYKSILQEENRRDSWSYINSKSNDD
Chain of α4β7 (P26010 20-798): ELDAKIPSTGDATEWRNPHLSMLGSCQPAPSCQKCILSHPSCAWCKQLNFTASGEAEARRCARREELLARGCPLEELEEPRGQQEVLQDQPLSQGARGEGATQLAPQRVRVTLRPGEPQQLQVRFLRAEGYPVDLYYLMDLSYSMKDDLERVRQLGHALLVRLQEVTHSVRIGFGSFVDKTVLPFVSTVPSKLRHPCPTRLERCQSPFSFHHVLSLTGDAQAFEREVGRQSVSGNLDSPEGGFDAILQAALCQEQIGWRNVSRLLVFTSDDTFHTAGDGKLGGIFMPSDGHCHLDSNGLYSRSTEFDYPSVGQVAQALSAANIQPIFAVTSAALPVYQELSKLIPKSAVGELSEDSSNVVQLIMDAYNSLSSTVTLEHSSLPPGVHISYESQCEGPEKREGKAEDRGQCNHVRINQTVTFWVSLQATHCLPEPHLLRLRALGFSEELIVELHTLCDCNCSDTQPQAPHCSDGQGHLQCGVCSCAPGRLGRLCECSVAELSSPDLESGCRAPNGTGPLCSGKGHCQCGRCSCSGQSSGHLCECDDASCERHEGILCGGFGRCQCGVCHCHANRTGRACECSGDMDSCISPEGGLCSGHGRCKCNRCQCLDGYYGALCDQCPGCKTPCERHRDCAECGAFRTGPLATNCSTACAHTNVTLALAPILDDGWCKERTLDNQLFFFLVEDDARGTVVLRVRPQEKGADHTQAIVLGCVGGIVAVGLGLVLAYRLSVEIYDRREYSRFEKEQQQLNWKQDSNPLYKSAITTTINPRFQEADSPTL

SMILES	IC50
CC(=O)N[C@@H]1C(=O)N(C)[C@@H](CCCNC(=N)N)C(=O)N[C@@H](CO)C(=O)N[C@@H](CC(=O)O)C(=O)N[C@@H]([C@@H](C)O)C(=O)N[C@@H](CC(C)C)C(=O)N[C@H](C(=O)N[C@H](Cc2ccc3ccccc3c2)C(=O)N[C@@H](CCC(=O)O)C(=O)N[C@H](CCCCNC(=O)COCC(=O)NCCCC[C@@H](NC(=O)[C@H](CCC(=O)O)NC(=O)[C@@H](Cc2ccc3ccccc3c2)NC(=O)[C@H]2NC(=O)[C@H](CC(C)C)NC(=O)[C@H]([C@@H](C)O)NC(=O)[C@H](CC(=O)O)NC(=O)[C@H](CO)NC(=O)[C@H](CCCNC(=N)N)N(C)C(=O)[C@@H](NC(C)=O)C(C)(C)SSC2(C)C)C(N)=O)C(N)=O)C(C)(C)SSC1(C)C [compound 35] (I: Ac-[Pen][NMeR]SDTL[Pen][d2Nal]E[dK]-NH2 / II: Ac-[Pen][NMeR]SDTL[Pen][d2Nal]E[dK]-NH2; disulfide I:1-I:7, II:1-II:7; linker I:10-II:10 via Diglycolyl)	100 to 500 nM
CC(=O)N[C@@H]1C(=O)N(C)[C@@H](CCCNC(=N)N)C(=O)N[C@@H](CO)C(=O)N[C@@H](CC(=O)O)C(=O)N[C@@H]([C@@H](C)O)C(=O)N[C@@H](CC(C)C)C(=O)N[C@H](C(=O)N[C@@H](Cc2c[nH]cn2)C(=O)N[C@@H](Cc2ccc(O)cc2)C(=O)N[C@H](CCCCNC(=O)COCC(=O)NCCCC[C@@H](NC(=O)[C@H](Cc2ccc(O)cc2)NC(=O)[C@H](Cc2c[nH]cn2)NC(=O)[C@H]2NC(=O)[C@H](CC(C)C)NC(=O)[C@H]([C@@H](C)O)NC(=O)[C@H](CC(=O)O)NC(=O)[C@H](CO)NC(=O)[C@H](CCCNC(=N)N)N(C)C(=O)[C@@H](NC(C)=O)C(C)(C)SSC2(C)C)C(N)=O)C(N)=O)C(C)(C)SSC1(C)C [compound 26] (I: Ac-[Pen][NMeR]SDTL[Pen]HY[dK]-NH2 / II: Ac-[Pen][NMeR]SDTL[Pen]HY[dK]-NH2; disulfide I:1-I:7, II:1-II:7; linker I:10-II:10 via Diglycolyl)	100 to 500 nM
COc1ccc(C[C@H](NC(=O)[C@H]2NC(=O)[C@H](CC(C)C)NC(=O)[C@H]([C@@H](C)O)NC(=O)[C@H](CC(=O)O)NC(=O)[C@H](CO)NC(=O)[C@H](CCCNC(=N)N)N(C)C(=O)[C@@H](NC(C)=O)C(C)(C)SSC2(C)C)C(=O)N[C@H](CCC(=O)O)C(=O)N[C@H](CCCCNC(=O)COCC(=O)NCCCC[C@@H](NC(=O)[C@@H](CCC(=O)O)NC(=O)[C@H](Cc2ccc(OC)cc2)NC(=O)[C@H]2NC(=O)[C@H](CC(C)C)NC(=O)[C@H]([C@@H](C)O)NC(=O)[C@H](CC(=O)O)NC(=O)[C@H](CO)NC(=O)[C@H](CCCNC(=N)N)N(C)C(=O)[C@@H](NC(C)=O)C(C)(C)SSC2(C)C)C(N)=O)C(N)=O)cc1 [compound 103] (I: Ac-[Pen][NMeR]SDTL[Pen]Y(Me)[dE][dK]-NH2 / II: Ac-[Pen][NMeR]SDTL[Pen]Y(Me)[dE][dK]-NH2; disulfide I:1-I:7, II:1-II:7; linker I:10-II:10 via Diglycolyl)	25 to 50 nM
CC(=O)N[C@@H]1C(=O)N(C)[C@@H](CCCNC(=N)N)C(=O)N[C@@H](CO)C(=O)N[C@@H](CC(=O)O)C(=O)N[C@@H](C(C)C)C(=O)N[C@@H](CC(C)C)C(=O)N[C@H](C(=O)N[C@@H](Cc2ccc3ccccc3c2)C(=O)N[C@H](CCC(=O)O)C(N)=O)C(C)(C)SSC1(C)C [compound 156] (Ac-[Pen][NMeR]SDVL[Pen][2Nal][dE]-NH2; disulfide 1-7)	100 to 500 nM
CC(=O)N[C@@H]1C(=O)N(C)[C@@H](CCCNC(=N)N)C(=O)N[C@@H](CO)C(=O)N[C@@H](CC(=O)O)C(=O)N[C@@H](CC(=O)O)C(=O)N[C@@H](CC(C)C)C(=O)N[C@H](C(=O)N[C@@H](Cc2ccc(C(C)(C)C)cc2)C(=O)N[C@@H](CCC(=O)O)CC(=O)N[C@H](CCCCNC(=O)CN(CC(=O)NCCCC[C@@H](NC(=O)C[C@H](CCC(=O)O)NC(=O)[C@H](Cc2ccc(C(C)(C)C)cc2)NC(=O)[C@H]2NC(=O)[C@H](CC(C)C)NC(=O)[C@H](CC(=O)O)NC(=O)[C@H](CC(=O)O)NC(=O)[C@H](CO)NC(=O)[C@H](CCCNC(=N)N)N(C)C(=O)[C@@H](NC(C)=O)C(C)(C)SSC2(C)C)C(N)=O)C(=O)CCN)C(N)=O)C(C)(C)SSC1(C)C [compound 191]	10000 to 100000 nM
CC(=O)N[C@@H]1C(=O)N(C)[C@@H](CCCNC(=N)N)C(=O)N[C@@H](CO)C(=O)N[C@@H](CC(=O)O)C(=O)N[C@@H]([C@@H](C)O)C(=O)N[C@@H](CC(C)C)C(=O)N[C@H](C(=O)N[C@@H](Cc2ccc3ccccc3c2)C(=O)N[C@@H](CCC(=O)O)C(N)=O)C(C)(C)SSC1(C)C [compound 75] (Ac-[Pen][NMeR]SDTL[Pen][2Nal]E-NH2; disulfide 1-7)	50 to 100 nM
CC(=O)N[C@@H]1C(=O)N(C)[C@@H](CCCNC(=N)N)C(=O)N[C@@H](CO)C(=O)N[C@@H](CC(=O)O)C(=O)N[C@@H]([C@@H](C)O)C(=O)N[C@@H](CC(C)C)C(=O)N[C@H](C(=O)N[C@@H](Cc2c[nH]cn2)C(=O)N[C@@H](CCC(=O)O)C(=O)N[C@H](CCCCNC(=O)COCC(=O)NCCCC[C@@H](NC(=O)[C@H](CCC(=O)O)NC(=O)[C@H](Cc2c[nH]cn2)NC(=O)[C@H]2NC(=O)[C@H](CC(C)C)NC(=O)[C@H]([C@@H](C)O)NC(=O)[C@H](CC(=O)O)NC(=O)[C@H](CO)NC(=O)[C@H](CCCNC(=N)N)N(C)C(=O)[C@@H](NC(C)=O)C(C)(C)SSC2(C)C)C(N)=O)C(N)=O)C(C)(C)SSC1(C)C [compound 25] (I: Ac-[Pen][NMeR]SDTL[Pen]HE[dK]-NH2 / II: Ac-[Pen][NMeR]SDTL[Pen]HE[dK]-NH2; disulfide I:1-I:7, II:1-II:7; linker I:10-II:10 via Diglycolyl)	10 to 25 nM
CC(=O)N[C@@H]1C(=O)N(C)[C@@H](CCCNC(=N)N)C(=O)N[C@@H](CO)C(=O)N[C@@H](CC(=O)O)C(=O)N[C@@H]([C@@H](C)O)C(=O)N[C@@H](CC(C)C)C(=O)N[C@H](C(=O)N[C@@H](Cc2cccc3ccccc23)C(=O)N[C@H](Cc2ccccc2)C(=O)N[C@H](CCCCNC(=O)COCC(=O)NCCCC[C@@H](NC(=O)[C@@H](Cc2ccccc2)NC(=O)[C@H](Cc2cccc3ccccc23)NC(=O)[C@H]2NC(=O)[C@H](CC(C)C)NC(=O)[C@H]([C@@H](C)O)NC(=O)[C@H](CC(=O)O)NC(=O)[C@H](CO)NC(=O)[C@H](CCCNC(=N)N)N(C)C(=O)[C@@H](NC(C)=O)C(C)(C)SSC2(C)C)C(N)=O)C(N)=O)C(C)(C)SSC1(C)C [compound 111] (I: Ac-[Pen][NMeR]SDTL[Pen][1Nal][dF][dK]-NH2 / II: Ac-[Pen][NMeR]SDTL[Pen][1Nal][dF][dK]-NH2; disulfide I:1-I:7, II:1-II:7; linker I:10-II:10 via Diglycolyl)	100 to 500 nM
CC(=O)N[C@@H]1C(=O)N(C)[C@@H](CCCNC(=N)N)C(=O)N[C@@H](CO)C(=O)N[C@@H](CC(=O)O)C(=O)N[C@@H]([C@@H](C)O)C(=O)N[C@@H](CC(C)C)C(=O)N[C@H](C(=O)N[C@@H](Cc2c[nH]c3ccccc23)C(=O)N2CCC[C@H]2C(=O)N[C@@H](CCCCNC(=O)COCC(=O)NCCCC[C@H](NC(=O)[C@@H]2CCCN2C(=O)[C@H](Cc2c[nH]c3ccccc23)NC(=O)[C@H]2NC(=O)[C@H](CC(C)C)NC(=O)[C@H]([C@@H](C)O)NC(=O)[C@H](CC(=O)O)NC(=O)[C@H](CO)NC(=O)[C@H](CCCNC(=N)N)N(C)C(=O)[C@@H](NC(C)=O)C(C)(C)SSC2(C)C)C(N)=O)C(N)=O)C(C)(C)SSC1(C)C [compound 95] (I: Ac-[Pen][NMeR]SDTL[Pen]WPK-NH2 / II: Ac-[Pen][NMeR]SDTL[Pen]WPK-NH2; disulfide I:1-I:7, II:1-II:7; linker I:10-II:10 via Diglycolyl)	100 to 500 nM
CC(=O)N[C@@H]1C(=O)N(C)[C@@H](CCCNC(=N)N)C(=O)N[C@@H](CO)C(=O)N[C@@H](CC(=O)O)C(=O)N[C@@H]([C@@H](C)O)C(=O)N[C@@H](CC(C)C)C(=O)N[C@H](C(=O)N[C@@H](Cc2ccc3ccccc3c2)C(=O)N[C@H](CC(C)C)C(=O)N[C@H](CCCCNC(=O)COCC(=O)NCCCC[C@@H](NC(=O)[C@@H](CC(C)C)NC(=O)[C@H](Cc2ccc3ccccc3c2)NC(=O)[C@H]2NC(=O)[C@H](CC(C)C)NC(=O)[C@H]([C@@H](C)O)NC(=O)[C@H](CC(=O)O)NC(=O)[C@H](CO)NC(=O)[C@H](CCCNC(=N)N)N(C)C(=O)[C@@H](NC(C)=O)C(C)(C)SSC2(C)C)C(N)=O)C(N)=O)C(C)(C)SSC1(C)C [compound 119] (I: Ac-[Pen][NMeR]SDTL[Pen][2Nal][dL][dK]-NH2 / II: Ac-[Pen][NMeR]SDTL[Pen][2Nal][dL][dK]-NH2; disulfide I:1-I:7, II:1-II:7; linker I:10-II:10 via Diglycolyl)	500 to 1000 nM
